One may read the IC50 as the point on the concentration scale where inhibition reaches its midpoint. Higher therefore signals a need for much substance.

Common to all, as to type: biochemical
One assay addresses T1, JAK1 (Homo sapiens, UniProt P23458).
T1 construct: 5 μl of catalytic domain recombinant Kinase enzyme+Tyr peptide substrate (Invitrogen, CA); purchased Invitrogen
Kind of assay: Z'-LYTE kinase assay JAK1. The essentials:
(§1)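 In duplicate wells, each test molecule (1% final DMSO) is incubated with recombinant kinase catalytic domain, Tyr6 peptide substrate and ATP for one hour at room temperature; a site-specific protease is then added for another hour before fluorescence reading.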

In a further assay the target is T2, JAK2 (Homo sapiens, UniProt O60674).
T2 construct: 5 μl of catalytic domain recombinant Kinase enzyme+Tyr peptide substrate (Invitrogen, CA); purchased Invitrogen
T2 sequence (O60674 849-1124 limits assumed): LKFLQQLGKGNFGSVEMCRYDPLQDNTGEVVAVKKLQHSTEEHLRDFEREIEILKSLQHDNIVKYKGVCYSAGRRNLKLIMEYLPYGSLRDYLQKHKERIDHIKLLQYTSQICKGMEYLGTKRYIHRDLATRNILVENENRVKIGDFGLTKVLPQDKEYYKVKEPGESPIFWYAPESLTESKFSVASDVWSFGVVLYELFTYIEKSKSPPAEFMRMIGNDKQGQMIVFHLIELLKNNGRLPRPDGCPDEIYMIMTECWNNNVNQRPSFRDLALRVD
Kind of assay: Z'-LYTE kinase assay JAK2. The gist of the method: as §1

The next assay addresses T3, JAK3 (Homo sapiens, UniProt P52333).
T3 construct: 5 μl of catalytic domain recombinant Kinase enzyme+Tyr peptide substrate (Invitrogen, CA); purchased Invitrogen
Put plainly: Z'-LYTE kinase assay JAK3. The essentials:
as §1

T1 sequence (P23458 875-1153 limits assumed): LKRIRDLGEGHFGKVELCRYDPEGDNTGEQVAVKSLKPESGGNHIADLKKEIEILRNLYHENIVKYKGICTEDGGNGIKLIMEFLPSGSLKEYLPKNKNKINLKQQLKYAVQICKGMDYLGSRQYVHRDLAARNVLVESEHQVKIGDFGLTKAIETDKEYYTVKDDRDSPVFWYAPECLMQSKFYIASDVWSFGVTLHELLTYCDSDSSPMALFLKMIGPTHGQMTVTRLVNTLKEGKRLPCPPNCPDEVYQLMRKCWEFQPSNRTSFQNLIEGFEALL
T3 sequence (P52333 822-1111 limits assumed): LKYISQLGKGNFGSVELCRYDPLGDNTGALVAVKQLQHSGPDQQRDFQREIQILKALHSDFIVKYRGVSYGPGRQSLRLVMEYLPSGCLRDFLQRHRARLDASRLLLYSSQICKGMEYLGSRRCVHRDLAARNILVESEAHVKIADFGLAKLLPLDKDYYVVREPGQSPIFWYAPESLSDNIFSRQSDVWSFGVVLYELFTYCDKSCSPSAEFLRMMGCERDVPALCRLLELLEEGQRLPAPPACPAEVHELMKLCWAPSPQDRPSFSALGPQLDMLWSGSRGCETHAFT

With `CCC(=O)N1CCC(c2ccc(Nc3cc(NCc4cnn(C)c4)c(C(N)=O)cn3)cc2)CC1` [Example 178, 4-((1-methyl-1H-pyrazol-4-yl)methylamino)-6-(4-(1-propionylpiperidin-4-yl)phenylamino)nicotinamide], the values for the IC50 at JAK1, on JAK2 and at JAK3 were more than 1000 nM, more than 1000 nM and 100 to 1000 nM, respectively.

For `NC(=O)c1cnc(Nc2ccc3ccncc3c2)cc1NCc1ccccc1` [Example 89, 4-(benzylamino)-6-(isoquinolin-7-ylamino)nicotinamide], the IC50 against JAK1 was more than 1000 nM; against JAK2, more than 1000 nM; against JAK3, 100 to 1000 nM.

On to `CCC(=O)N1CCC(c2ccc(Nc3cc(NC4CCOCC4)c(C(N)=O)cn3)cc2)CC1` [Example 146, 6-(4-(1-propionylpiperidin-4-yl)phenylamino)-4-(tetrahydro-2H-pyran-4-ylamino)nicotinamide], for which the IC50 at JAK1 is more than 1000 nM; at JAK2 it was 100 to 1000 nM; against JAK3 it was 100 to 1000 nM.

Take `Cc1cc(Nc2cc(NCc3cccc(F)c3F)c(C(N)=O)cn2)ccc1C(=O)N1CCC1` [Example 454, 6-(4-(azetidine-1-carbonyl)-3-methylphenylamino)-4-(2,3-difluorobenzylamino)nicotinamide]: the half-maximal inhibitory concentration (IC50) is 100 to 1000 nM on JAK1, 10 to 100 nM against JAK2 and less than 1 nM at JAK3.

With `NC(=O)c1cnc(Nc2cccc(Cl)c2)cc1NCc1cncc(F)c1` [Example 307, 6-(3-chlorophenylamino)-4-((5-fluoropyridin-3-yl)methylamino)nicotinamide], the figures for the IC50 against JAK1, against JAK2 and on JAK3 were more than 1000 nM, 100 to 1000 nM and 10 to 100 nM, respectively.

As to `COc1ccc(Nc2cc(NCc3cccc(F)n3)c(C(N)=O)cn2)cc1` [Example 315, 4-((6-fluoropyridin-2-yl)methylamino)-6-(4-methoxyphenylamino)nicotinamide], the IC50 at JAK1 was in the range of 100 to 1000 nM; against JAK2, 100 to 1000 nM; against JAK3 it was 10 to 100 nM.

On to `CCC(=O)N1CCN(c2ccc(Nc3cc(NC4(c5ccccc5)CC4)c(C(N)=O)cn3)cc2)CC1` [Example 124, 4-(1-phenylcyclopropylamino)-6-(4-(4-propionylpiperazin-1-yl)phenylamino)nicotinamide], for which the IC50 on JAK1 was more than 1000 nM; against JAK2 it was 100 to 1000 nM; at JAK3, 10 to 100 nM.

In the case of `CN1C(=O)COc2ccc(Nc3cc(NCc4ccccc4)c(C(N)=O)cn3)cc21` [Example 85, 4-(benzylamino)-6-(4-methyl-3-oxo-3,4-dihydro-2H-benzo[b][1,4]oxazin-6-ylamino)nicotinamide], the IC50 at JAK1 was more than 1000 nM; at JAK2, more than 1000 nM; at JAK3 it was 10 to 100 nM.

On to `CCC(=O)N1CCC(c2ccc(Nc3cc(N[C@H](C)C4CC4)c(C(N)=O)cn3)cc2)CC1` [Example 202, (R)-4-(1-cyclopropylethylamino)-6-(4-(1-propionylpiperidin-4-yl)phenylamino)nicotinamide], for which the figures for the IC50 against JAK1, against JAK2 and on JAK3 were 100 to 1000 nM, 100 to 1000 nM and 10 to 100 nM, respectively.

Regarding `CN(C)C(=O)c1ccc(Nc2cc(NCc3cccc4c3ccn4C)c(C(N)=O)cn2)cc1` [Example 304, 6-(4-(dimethylcarbamoyl)phenylamino)-4-((1-methyl-1H-indol-4-yl)methylamino)nicotinamide], the IC50 is 100 to 1000 nM on JAK1, 100 to 1000 nM against JAK2 and 1 to 10 nM against JAK3.

With `NC(=O)c1cnc(Nc2ccc(C3CNC3)cc2)cc1NCc1cccc(F)c1F` [Example 212, 6-(4-(azetidin-3-yl)phenylamino)-4-(2,3-difluorobenzylamino)nicotinamide], the IC50 against JAK1 lay within 100 to 1000 nM; against JAK2, 10 to 100 nM; at JAK3, 1 to 10 nM.

In the case of `NC(=O)c1cnc(Nc2ccc(CC(=O)N3CCOCC3)cc2)cc1NCc1ccccc1` [Example 330, 4-(benzylamino)-6-(4-(2-morpholino-2-oxoethyl)phenylamino)nicotinamide], the IC50 lay within 100 to 1000 nM against JAK1, 100 to 1000 nM against JAK2 and 1 to 10 nM against JAK3.

With `NC(=O)c1cnc(Nc2cccc(C3CCOCC3)c2)cc1NCc1cccc(F)c1F` [Example 205, 4-(2,3-difluorobenzylamino)-6-(3-(tetrahydro-2H-pyran-4-yl)phenylamino)nicotinamide], the figures for the IC50 on JAK1, at JAK2 and against JAK3 were 100 to 1000 nM, 10 to 100 nM and 1 to 10 nM, respectively.

`N#CCN1CCC(c2ccc(Nc3cc(NCc4cc(F)ccc4F)c(C(N)=O)cn3)cc2)CC1` [Example 218, 6-(4-(1-(cyanomethyl)piperidin-4-yl)phenylamino)-4-(2,5-difluorobenzylamino)nicotinamide]: the figures for the half-maximal inhibitory concentration (IC50) against JAK1, at JAK2 and against JAK3 were 100 to 1000 nM, 10 to 100 nM and 1 to 10 nM, respectively.

Take `CCC(=O)N1CCC(c2ccc(Nc3cc(NCc4ccccn4)c(C(N)=O)cn3)cc2)CC1` [Example 179, 6-(4-(1-propionylpiperidin-4-yl)phenylamino)-4-(pyridin-2-ylmethylamino)nicotinamide]: the concentration for half-maximal inhibition (IC50) was more than 1000 nM against JAK1, 100 to 1000 nM against JAK2 and 10 to 100 nM against JAK3.

On to `NC(=O)c1cnc(Nc2ccc(C3CCN(CC(F)F)CC3)cc2)cc1NCc1cccc(F)c1F` [Example 216, 4-(2,3-difluorobenzylamino)-6-(4-(1-(2,2-difluoroethyl)piperidin-4-yl)phenylamino)nicotinamide], for which the IC50 on JAK1 is more than 1000 nM; against JAK2, more than 1000 nM; on JAK3 it was 10 to 100 nM.

Take `COC(=O)N(C)c1ccc(Nc2cc(NCc3cncc(F)c3)c(C(N)=O)cn2)cc1` [Example 479]: the values for the half-inhibitory concentration (IC50) against JAK1, against JAK2 and on JAK3 were 100 to 1000 nM, 100 to 1000 nM and 10 to 100 nM, respectively.

For `NC(=O)c1cnc(Nc2ccc(C3CN(C(=O)N4CCCC4)C3)cc2)cc1NCc1ccccc1` [Example 338, 4-(benzylamino)-6-(4-(1-(pyrrolidine-1-carbonyl)azetidin-3-yl)phenylamino)nicotinamide], the results for the IC50 against JAK1, against JAK2 and against JAK3 were 100 to 1000 nM, 100 to 1000 nM and 1 to 10 nM, respectively.

With `NC(=O)c1cnc(Nc2ccc(OCCN3CCCC3)cc2)cc1NC1(c2ccccc2)CC1` [Example 132, 4-(1-phenylcyclopropylamino)-6-(4-(2-(pyrrolidin-1-yl)ethoxy)phenylamino)nicotinamide], the IC50 against JAK1 was more than 1000 nM; against JAK2, 100 to 1000 nM; on JAK3 it was 10 to 100 nM.

`CN(C)C(=O)c1ccc(Nc2cc(NCc3cccc(-n4ccnc4)c3)c(C(N)=O)cn2)cc1` [Example 224, 4-(3-(1H-imidazol-1-yl)benzylamino)-6-(4-(dimethylcarbamoyl)phenylamino)nicotinamide]: the IC50 at JAK1 lay within 100 to 1000 nM; at JAK2 it was 100 to 1000 nM; on JAK3, 1 to 10 nM.

Turning to `COc1ccc(Nc2cc(NCc3ccccc3)c(C(N)=O)cn2)cc1Cl` [Example 332, 4-(benzylamino)-6-(3-chloro-4-methoxyphenylamino)nicotinamide], the IC50 is more than 1000 nM against JAK1, more than 1000 nM against JAK2 and 10 to 100 nM on JAK3.

In the case of `CN(C)C(=O)c1ccc(Nc2cc(NCc3cccc(-c4ccccn4)c3)c(C(N)=O)cn2)cc1` [Example 421, 6-(4-(dimethylcarbamoyl)phenylamino)-4-(3-(pyridine-2-yl)benzylamino)nicotinamide], the half-maximal inhibitory concentration (IC50) is more than 1000 nM against JAK1, 100 to 1000 nM against JAK2 and 10 to 100 nM against JAK3.

For the compound `CC(=O)N(C)c1ccc(Nc2cc(NCc3cccc4ccsc34)c(C(N)=O)cn2)cc1` [Example 468, 4-(benzo[b]thiophen-7-ylmethylamino)-6-(4-(N-methylacetamido)phenylamino)nicotinamide], the IC50 against JAK1 lay in the range of 100 to 1000 nM; against JAK2 it was 10 to 100 nM; against JAK3, 1 to 10 nM.

Turning to `N#CC1(C(=O)N2CCC(c3ccc(Nc4cc(NCc5ccccc5F)c(C(N)=O)cn4)cc3)CC2)CC1` [Example 118, 6-(4-(1-(1-cyanocyclopropanecarbonyl)piperidin-4-yl)phenylamino)-4-(2-fluorobenzylamino)nicotinamide], the IC50 against JAK1 was more than 1000 nM; against JAK2, more than 1000 nM; on JAK3, 10 to 100 nM.

In the case of `COCC(=O)N1CCC[C@H](CNc2cc(Nc3ccc(OC)cc3)ncc2C(N)=O)C1` [Example 55, (R)-4-((1-(2-methoxyacetyl)piperidin-3-yl)methylamino)-6-(4-methoxyphenylamino)nicotinamide], the IC50 on JAK1 was more than 1000 nM; at JAK2, more than 1000 nM; at JAK3, 10 to 100 nM.

With `COCC(=O)N1CCC[C@H](CNc2cc(Nc3ccc(C(=O)N4CCCC4)cc3)ncc2C(N)=O)C1` [Example 267, (R)-4-((1-(2-methoxyacetyl)piperidin-3-yl)methylamino)-6-(4-(pyrrolidine-1-carbonyl)phenylamino)nicotinamide], the half-maximal inhibitory concentration (IC50) at JAK1 was more than 1000 nM; on JAK2, 100 to 1000 nM; against JAK3, 10 to 100 nM.

Consider `CC(=O)N1CCC[C@H](CNc2cc(Nc3ccc(C(=O)N(C)C)c(F)c3)ncc2C(N)=O)C1` [Example 275, (R)-4-((1-acetylpiperidin-3-yl)methylamino)-6-(4-(dimethylcarbamoyl)-3-fluorophenylamino)nicotinamide], for which the IC50 is more than 1000 nM against JAK1, more than 1000 nM against JAK2 and 100 to 1000 nM against JAK3.

Consider `CCC(=O)N1CCC(c2ccc(Nc3cc(NCC4CCOCC4)c(C(N)=O)cn3)cc2)CC1` [Example 144, 6-(4-(1-propionylpiperidin-4-yl)phenylamino)-4-((tetrahydro-2H-pyran-4-yl)methylamino)nicotinamide], for which the IC50 against JAK1 was more than 1000 nM; against JAK2, 100 to 1000 nM; on JAK3 it was 10 to 100 nM.

The values are drawn from US20150353495A1 (PORTOLA PHARMACEUTICALS, INC., priority 2010, published 2015).
